Assay results from patent US6514747B2 (UT-Battelle, LLC, priority 1993, dated 2003).

Columns and labels:
[1] = test system: aP212 and aP273 transgenic mice; test: daily insulin injections in aP2-agouti transgenic mice; format: in vivo, mouse
Experimental: All mice were maintained at Oak Ridge National Laboratory. The FVB/N mice were obtained from random-bred stock. All mice were fed a diet containing 11% fat by weight (Mouse Diet 5015; Purina), weaned at 4 wk of age, and subsequently weighed monthly. Food and water were obtained from ad libitum. All data are from mice that are hemizygous for the transgene.
Plasma and serum were obtained by retro-orbital sinus puncture from nonfasted mice between 9 am and 11 am. Plasma insulin levels were measured by radioimmunoassay (ICN) with porcine insulin as a standard. Blood glucose concentrations were determined by blood sampling from the tail vein followed by quantification via One-Touch™ glucose determination system (Johnson & Johnson).
Six- to ten-wk-old male mice were subcutaneously injected between 11 am and noon with Humulin U ultralente (Eli Lilly, Indianapolis, Ind.) at a daily dose of 0.5, 1, or 2 units/day per mouse. Insulin (100 units/ml) was diluted before injection with phosphate-buffered saline so that all mice received a 200-μl injection. A 1-ml syringe was filled with […] of the diluted insulin solution. To keep the insulin suspension as uniform as possible, it was mixed between each injection via plunger action.

[2] = test system: 3T3-L1 adipocytes; test: lipogenesis in 3T3-L1 adipocytes (FAS and SCD mRNA, FAS activity, triglyceride content); format: cell-based; conditions: nitrendipine alone
[3] = test system: L6 skeletal myocytes; test: [Ca2+]i in L6 skeletal myocytes (fura 2); format: cell-based
[4] = test system: untransfected 293 cells; test: adenylyl cyclase assay in untransfected 293 cells; format: cell-based, human; conditions: untransfected 293 cells
Experimental: 293 cells (5×10^5) and 293 cells expressing human TSH-R were preloaded with 5 μCi ^3H-adenine for 1.5 h at 37° C. in a 5% CO2 incubator.
Medium was aspirated and 2.5% perchloric acid containing 0.1 mM cAMP was used to stop the incubation. Adenylyl cyclase activity was calculated by determining the percent conversion of ^3H-adenine to ^3H-cAMP as described (Salomon, 1991; Johnson and Salomon, 1991). Correlation of cAMP accumulation measured in this assay with actual adenylyl cyclase activity is made under the assumption that isobutymethylxanthine effectively blocks cAMP degradation. Data represent means and standard deviations from triplicate data points.

[5] = target: T1, human melanocortin 1 receptor (hMC1R) (Homo sapiens, UniProt Q01726); test: [Ca2+]i in HEK-293 cells transfected with hMC1R; format: cell-based; conditions: 20 nM agouti, n = 8
T1 construct: The coding region of the human melanocortin 1, 3, and 5 receptor (hMC1R, hMC3R, and hMC5R) genes was amplified; expressed in transfected cells; host or cells: HEK-293 cells, cotransfected with pMT4 construct and pRSV-Neo, geneticin-selected clones
Experimental: The coding region of the human melanocortin 1, 3, and 5 receptor (hMC1R, hMC3R, and hMC5R) genes was amplified by polymerase chain reaction and subcloned into the vector pMT4, and the sequence was verified. HEK-293 cells, which appear to lack endogenous melanocortin receptors (Lu et al., 1994), were cotransfected with pMT4 and pRSV-Neo by either calcium phosphate coprecipitation method or the use of Transfectam reagent (Promega). Clones were selected using 600 μg geneticin/ml. culture medium.
[Ca^2+]i was measured in L6, A7r5, and HEK-293 cells (Zemel et al., 1995) as previously described and in 3T3-L1 cells as described by Klip and Ramlal (1987). Monolayers of nonfused L6 cells and confluent A7r5 cells after 14-16 h of starvation in a serum-free culture medium were rinsed with Hanks' balanced salt solution (HBSS), detached by incubation in 2 ml trypsin (0.05%) for 2-3 min at 37° C., and released by pipetting without trypsinization. Cells were harvested by centrifugation at 50 g and resuspended in 1 ml HBSS at a density of ˜10^6 cells/ml. For 3T3-L1 cells, monolayers of differentiated adipocytes were rinsed with serum-free DMEM and exposed to 0.05% trypsin for 3 min. The solution was decanted, and the cells were incubated for 3 min in culture medium. Cells were detached by pipetting and collected by centrifugation at 50 g. Cells were then incubated in culture medium to recover for 1 h followed by incubation in serum-free DMEM for 4 h at 37° C. in an atmosphere of 5% CO2, collected by centrifugation, and resuspended in HBSS at a density of ˜10^6 cells/ml. Cell suspensions were chilled on ice for 5 min and loaded with […] (final concn) fura 2 acetoxymethyl ester (AM; Sigma) in the dark for 20 min at 37° C. For 3T3-L1 adipocytes, the chilling step was skipped. […] [Ca^2+]i levels were then measured fluorometrically in suspensions using dual excitation (340 and 380 nm)-single emission (510 nm) fluorometry as previously described (Zemel et al., 1995). [Ca^2+]i was then calculated by the computer in the fluorometer with the equation of Grynkiewicz et al. (1985). […]

[6] = target: T2, human melanocortin 3 receptor (hMC3R) (Homo sapiens, UniProt P41968); test: [Ca2+]i in HEK-293 cells transfected with hMC3R; format: cell-based; conditions: 20 nM agouti, n = 8
T2 construct: The coding region of the human melanocortin 1, 3, and 5 receptor (hMC1R, hMC3R, and hMC5R) genes was amplified; expressed in transfected cells; host or cells: HEK-293 cells, cotransfected with pMT4 construct and pRSV-Neo, geneticin-selected clones
Experimental: [Ca^2+]i was measured in L6, A7r5, and HEK-293 cells (Zemel et al., 1995) as previously described and in 3T3-L1 cells as described by Klip and Ramlal (1987). Monolayers of nonfused L6 cells and confluent A7r5 cells after 14-16 h of starvation in a serum-free culture medium were rinsed with Hanks' balanced salt solution (HBSS), detached by incubation in 2 ml trypsin (0.05%) for 2-3 min at 37° C., and released by pipetting without trypsinization. Cells were harvested by centrifugation at 50 g and resuspended in 1 ml HBSS at a density of ˜10^6 cells/ml. For 3T3-L1 cells, monolayers of differentiated adipocytes were rinsed with serum-free DMEM and exposed to 0.05% trypsin for 3 min. The solution was decanted, and the cells were incubated for 3 min in culture medium. Cells were detached by pipetting and collected by centrifugation at 50 g. Cells were then incubated in culture medium to recover for 1 h followed by incubation in serum-free DMEM for 4 h at 37° C. in an atmosphere of 5% CO2, collected by centrifugation, and resuspended in HBSS at a density of ˜10^6 cells/ml. […] [Ca^2+]i levels were then measured fluorometrically in suspensions using dual excitation (340 and 380 nm)-single emission (510 nm) fluorometry as previously described (Zemel et al., 1995). [Ca^2+]i was then calculated by the computer in the fluorometer with the equation of Grynkiewicz et al. (1985). […]

[7] = test system: isolated human adipocytes; test: [Ca2+]i in isolated human adipocytes; format: cell-based

T2 sequence (P41968 whole entry): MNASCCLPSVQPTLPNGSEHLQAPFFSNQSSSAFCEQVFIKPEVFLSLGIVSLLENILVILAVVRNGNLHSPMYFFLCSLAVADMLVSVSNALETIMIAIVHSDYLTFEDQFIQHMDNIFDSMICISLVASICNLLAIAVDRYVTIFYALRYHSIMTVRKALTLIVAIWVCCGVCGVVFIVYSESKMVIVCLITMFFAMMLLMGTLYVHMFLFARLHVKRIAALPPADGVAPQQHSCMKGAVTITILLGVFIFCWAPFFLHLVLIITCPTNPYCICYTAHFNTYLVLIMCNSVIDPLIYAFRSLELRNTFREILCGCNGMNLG
T1 sequence (Q01726 whole entry): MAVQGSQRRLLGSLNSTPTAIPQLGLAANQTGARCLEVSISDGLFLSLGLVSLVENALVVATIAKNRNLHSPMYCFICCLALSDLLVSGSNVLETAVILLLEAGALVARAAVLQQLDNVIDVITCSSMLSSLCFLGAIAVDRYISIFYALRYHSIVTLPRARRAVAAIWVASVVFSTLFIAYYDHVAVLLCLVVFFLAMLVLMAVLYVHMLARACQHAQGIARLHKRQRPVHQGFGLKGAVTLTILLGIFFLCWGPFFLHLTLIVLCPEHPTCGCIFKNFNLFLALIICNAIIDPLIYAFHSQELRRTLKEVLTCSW

Molecule: insulin: Humulin U ultralente (Eli Lilly), injected subcutaneously
- time for blood glucose levels to return to normal after insulin injection ([1]; 1 unit per mouse s.c., aP212 mice and littermates): ≤ 24 h
- average rate of weight gain, insulin-injected transgenic mice vs control mice ([1]; 2 units of insulin per day per mouse s.c., 7 days): 1.7 fold

Molecule: CCOC(=O)C1=C(C)NC(C)=C(C(=O)OC)C1c1cccc([N+](=O)[O-])c1 (stereo not drawn) [nitrendipine, reference compound]
- effect on FAS activity or triglyceride content [2]: no effect
- reduction of [Ca2+]i response to 50 nM agouti ([3]; 30 μM nitrendipine): ~50%
- [Ca2+]i response to 50 nM agouti ([3]; with 30 μM nitrendipine): 22 ± 6 nM

Molecule: α-melanocyte-stimulating hormone [α-MSH, reference compound]
- effect on the cAMP pathway [4]: no effect

B1: human agouti: recombinant human agouti protein (132 amino acids, SEQ ID NO:4) produced in baculovirus-infected T. ni cells (protein)
chain: MDVTRLLLATLLVFLCFFTANSHLPPEEKLRDDRSLRSNSSVNLLDVPSVSIVALNKKSKQIGRKAAEKKRSSKKEASMKKVVRPRTPLSAPCVATRNSCKPPAPACCDPCASCQCRFFRSACSCRVLSLNC
modifications: Homo sapien
- [Ca2+]i Increase over Baseline [5]: 57 ± 9
- [Ca2+]i Increase over Baseline [6]: 77 ± 14
- [Ca2+]i [7]: stimulate an increase
